Like-named read-outs stand apart in the source and are kept apart here.
Columns and labels:
[1] = test system: patient-derived tumor cells; assay: Apoptosis assay using patient tumor cells (CellEvent, caspase 3 and 7); format: cell-based, human; details: concentration between 0.1-10 μM; 48 hours of treatment
Method: (§1) Proliferation and Apoptosis Assay Using Patient Tumor Cells.
(§2) Cryopreserved patient-derived tumor cells were resurrected from liquid nitrogen storage and conditioned on coated plates prior to drug treatment. […] The mitotic activity of the cells was assessed by measuring ethynyl […] (EdU) incorporation during S-phase. The untreated control wells received medium containing DMSO (vehicle used to dissolve each compound and EdU). […] The apoptotic activity of the cells was assessed by measuring CellEvent incorporation due to caspase 3 and 7 activation. The untreated control wells received medium containing DMSO (vehicle used to dissolve each compound and CellEvent). After conditioning, cell lines were plated on a 3D matrix in two 96-well plates. The cells were allowed to settle and form spheroid structures for 48 hours. Then, 48 hours after plating, the cells were treated with compound.
The cells were treated only on Day 1. After 48 hours of compound treatment, CellEvent was added to measure the apoptotic activity in cells. […] For the Apoptosis assay, images were analyzed using a Multi Wavelength Scoring Algorithm (Molecular Devices, Sunnyvale, Calif.) to quantify mean fluorescent intensities (MFI) of each well for activated caspase 3 and 7 using CellEvent. The CellEvent mean fluorescence intensities (MFI) of treated wells and untreated controls were averaged and plotted.

BHY [2] = assay: Apoptosis assay for HN cancer cell lines (Caspase 3/7-Glo); format: cell-based; details: 24 hours
Method: (§3) Apoptosis Assay for HN Cancer Cell Lines.
(§4) Prior to testing, cells were grown and expanded in culture flasks to provide sufficient amounts of starting material. Cells were then diluted to their desired densities and added directly to compound-spotted 384-well plates. Cells were allowed to grow for 24 hours in 5% CO2 at 37° C. The apoptotic response was assessed by quantifying the activities of caspase 3 and caspase 7 (Caspase 3/7-Glo) in treated cells and control cells at the 24-hour time point. All data was normalized and represented as a value relative to the DMSO-treated cells. Results were then expressed as CalX, which is the minimum compound concentration required to double the levels of caspase 3/7 relative to those of the DMSO-treated cells during their treatment period.

RPMI-2650 [3] = assay: as above; format: cell-based; details: 24 hours
Method: as §3, §4

HN [4] = assay: as above; format: cell-based; details: minimum concentration to double caspase 3/7 vs DMSO, 24 hours
Method: as §3, §4

A253 [5] = assay: as above; format: cell-based; details: 24 hours
Method: as §3, §4

CAL-27 [6] = assay: as above; format: cell-based; details: 24 hours
Method: as §3, §4

SCC-25 [7] = assay: as above; format: cell-based; details: 24 hours
Method: as §3, §4

FADU [8] = assay: as above; format: cell-based; details: 24 hours
Method: as §3, §4

CAL-33 [9] = assay: as above; format: cell-based; details: 24 hours
Method: as §3, §4

Detroit562 [10] = assay: as above; format: cell-based; details: 24 hours
Method: as §3, §4

SCC-15 [11] = assay: as above; format: cell-based; details: 24 hours
Method: as §3, §4

SCC-9 [12] = assay: as above; format: cell-based; details: 24 hours
Method: as §3, §4

[13] = test system: patient-derived tumor cells; assay: Proliferation assay using patient tumor cells (EdU incorporation, 3D matrix); format: cell-based; details: Homo sapiens
Method: as §1, §2
The cells were treated only on Day 1. For the last 48 hours of the treatment, EdU was added to measure the cell proliferation. At the end of the treatment, plates were fixed, permeabilized and stained for EdU uptake (proliferation marker) and DAPI (nuclear marker). Plates were imaged at 4× magnification using ImageXpress Micro (Molecular Devices, Sunnyvale, Calif.). Seven z-stacks at 5 sites per well were captured and deconvoluted to create the images for analysis. For the proliferation assay, images were analyzed using a Multi Wave Scoring Algorithm (Molecular Devices, Sunnyvale, Calif.) to quantify mean fluorescent intensities (MFI) of each well for EdU. The EdU MFI's for the treated wells were normalized to those of the untreated wells to generate the compound response curves.

BHY [14] = assay: Growth inhibition assay for head and neck (HN) cancer cell lines; format: cell-based; details: 72 hours, Cell Titer-Glo
Method: (§5) Growth Inhibition Assay for Head and Neck (HN) Cancer Cell Lines.
(§6) A serial titration was performed to produce a working concentration range of 1.5 μM to 10 mM. Aliquots to produce final concentrations of 1.5 nM to 10 μM were spotted via an acoustic dispenser (EDC ATS-100) into an empty 384-well plate. […] The DMSO concentration was kept constant for a final assay concentration of 0.1% DMSO. Plates were replicated for use with different cell lines and testing periods. After compound plate replication, all plates were sealed (Agilent ThermoLoc) and stored at −20° C. for up to 1 month. […] When ready for testing, plates were removed from the freezer, thawed, and unsealed just prior to the addition of the test cells. Prior to testing, cells were grown and expanded in culture flasks to provide sufficient amounts of starting material. Cells were then diluted to the appropriate densities and added directly to the compound-spotted 384-well plates. Cells were allowed to grow for 72 hours at 37° C./5% CO2. At the time when compound was added (t0), initial cell number was assessed via a viability assay (Cell Titer-Glo) by quantifying the level of luminescence generated by ATP present in viable cells. After 72 hours, cell viability of compound-treated cells was assessed via Cell Titer-Glo and luminescence measurement. […] A control cell line (the lung tumor cell line, A549) was included in each of the assays. The compound response against this control cell line was monitored closely to enable comparison of the data generated through the assay period. All data were normalized and presented as a percentage of the DMSO-treated cells. Results were then expressed as a GI50 value. The GI50 value corrects for the cell count at time zero.

RPMI-2650 [15] = assay: as above; format: cell-based; details: Homo sapiens, 72 hours, Cell Titer-Glo
Method: as §5, §6

HN [16] = assay: as above; format: cell-based; details: 72 h
Method: as §5, §6

A253 [17] = assay: as above; format: cell-based; details: Homo sapiens, 72 hours, Cell Titer-Glo
Method: as §5, §6

CAL-27 [18] = assay: as above; format: cell-based; details: Homo sapiens, 72 hours, Cell Titer-Glo
Method: as §5, §6

SCC-25 [19] = assay: as above; format: cell-based; details: Homo sapiens, 72 hours, Cell Titer-Glo
Method: as §5, §6

FADU [20] = assay: as above; format: cell-based; details: Homo sapiens, 72 hours, Cell Titer-Glo
Method: as §5, §6

CAL-33 [21] = assay: as above; format: cell-based; details: Homo sapiens, 72 hours, Cell Titer-Glo
Method: as §5, §6

Detroit562 [22] = assay: as above; format: cell-based; details: Homo sapiens, Detroit 562, 72 hours, Cell Titer-Glo
Method: as §5, §6

SCC-15 [23] = assay: as above; format: cell-based; details: Homo sapiens, 72 hours, Cell Titer-Glo
Method: as §5, §6

SCC-9 [24] = assay: as above; format: cell-based; details: Homo sapiens, 72 hours, Cell Titer-Glo
Method: as §5, §6

[25] = Table 1, minimum concentration to double caspase 3/7 vs DMSO
[26] = minimum concentration to double caspase 3/7 vs DMSO
[27] = corrected for cell count at time zero

CCN1C(=O)CNc2ncc(-c3ccc(-c4nc[nH]n4)nc3C)nc21 [Compound 1, 1-ethyl-7-(2-methyl-6-(1H-1,2,4-triazol-3-yl)pyridin-3-yl)-3,4-dihydropyrazino[2,3-b]pyrazin-2(1H)-one]
apoptosis (activated caspase 3 and 7, CellEvent MFI) [1]: Apoptosis was observed in some patient-derived samples
Cal X (BHY [2]; [25]): > 10 µM
CalX (BHY [2]; [26]): >10 µM
Cal X (RPMI-2650 [3]; [25]): > 10 µM
CalX (RPMI-2650 [3]; [26]): >10 µM
CalX (HN [4]): >10 µM
Cal X (A253 [5]; [25]): > 10 µM
CalX (A253 [5]; [26]): >10 µM
Cal X (CAL-27 [6]; [25]): > 10 µM
CalX (CAL-27 [6]; [26]): >10 µM
Cal X (SCC-25 [7]; [25]): > 10 µM
CalX (SCC-25 [7]; [26]): >10 µM
Cal X (FADU [8]; [25]): > 10 µM
CalX (FADU [8]; [26]): >10 µM
Cal_X (CAL-33 [9]; Table 1, minimum concentration to double caspase 3/7 vs DMSO, in µM): 0.8764
CalX (CAL-33 [9]; [26]): 0.8764 µM
Cal X (Detroit562 [10]; [25]): > 10 µM
CalX (Detroit562 [10]; [26]): >10 µM
Cal X (SCC-15 [11]; [25]): > 10 µM
CalX (SCC-15 [11]; [26]): >10 µM
Cal X (SCC-9 [12]; [25]): > 10 µM
CalX (SCC-9 [12]; [26]): >10 µM
IC50 ([13]; Unknown, Left palate, read-out: Prolif IC50): 547 nM
IC50 ([13]; person, H&N carcinoma, Left superior segment, read-out: Prolif IC50): 260 nM
IC50 ([13]; person, H&N carcinoma, Lung, read-out: Prolif IC50): 342 nM
IC50 ([13]; person, Larynx carcinoma, Left side neck, read-out: Prolif IC50): 103 nM
IC50 ([13]; person, Squamous carcinoma H&N, Neck, read-out: Prolif IC50): 1720 nM
IC50 ([13]; person, Squamous carcinoma H&N, Right lower lobe lung, read-out: Prolif IC50): 139 nM
IC50 ([13]; person, Squamous carcinoma H&N, Right nasal, read-out: Prolif IC50): 240 nM
IC50 ([13]; person, Squamous cell H&N, Cervical lymph node, read-out: Prolif IC50): 146 nM
IC50 ([13]; person, Squamous cell H&N, Left chest wall, read-out: Prolif IC50): 157 nM
IC50 ([13]; person, Squamous cell H&N, Left neck lymph node, read-out: Prolif IC50): 499 nM
IC50 ([13]; person, Squamous cell H&N, Left neck, cervical, read-out: Prolif IC50): 429 nM
IC50 ([13]; person, Squamous cell H&N, Left tonsil, read-out: Prolif IC50): 162 nM
IC50 ([13]; person, Squamous cell H&N, Mass, left latisimal muscle, read-out: Prolif IC50): 115 nM
IC50 ([13]; person, Squamous cell H&N, Mass, skull base excision, read-out: Prolif IC50): 157 nM
IC50 ([13]; person, Squamous cell H&N, Pleural fluid, read-out: Prolif IC50): 536 nM
IC50 ([13]; person, Squamous cell H&N, Right lower lobe lung, read-out: Prolif IC50): 322 nM
IC50 ([13]; person, Squamous cell H&N, Right pleural biopsy, read-out: Prolif IC50): 441 nM
IC50 ([13]; person, Squamous cell tongue, Right axilliary node, read-out: Prolif IC50): 318 nM
IC50 ([13]; person, Tongue, Left neck mass, read-out: Prolif IC50): 377 nM
IC50 ([13]; span over all patient tumor cell samples of Table 3, read-out: inhibition of proliferation of patient tumor cells, IC50): 100 to 1800 nM
IC50 (BHY [14]): 210 nM
GI50 (BHY [14]; [27]): 39.5 nM
IC50 (RPMI-2650 [15]): 389 nM
GI50 (RPMI-2650 [15]; [27]): 219 nM
GI50 (HN [16]): 117 nM
IC50 (HN [16]): 178 nM
IC50 (A253 [17]): 378 nM
GI50 (A253 [17]; [27]): 303 nM
IC50 (CAL-27 [18]): 177 nM
GI50 (CAL-27 [18]; [27]): 144 nM
IC50 (SCC-25 [19]): 179 nM
GI50 (SCC-25 [19]; [27]): 127 nM
IC50 (FADU [20]): 1160 nM
GI50 (FADU [20]; [27]): 792 nM
IC50 (CAL-33 [21]): 69.8 nM
GI50 (CAL-33 [21]; [27]): 42.7 nM
IC50 (Detroit562 [22]): 254 nM
GI50 (Detroit562 [22]; [27]): 169 nM
IC50 (SCC-15 [23]): 679 nM
GI50 (SCC-15 [23]; [27]): 56.8 nM
IC50 (SCC-9 [24]): 362 nM
GI50 (SCC-9 [24]; [27]): 129 nM
